In patent publication US8829007B2 (priority 2009, dated 2014):
Like-named read-outs stand apart in the source and are kept apart here.

What was measured:
[1] = system: influenza A virus (A/PR/8/34); assay: microbe, parasite or virus in culture; type: cell-based
[2] = system: A/PR/8/34 influenza virus; assay: microbe, parasite or virus in culture; type: cell-based
[3] = Influenza A virus, PR/8, MDCK, MDCK cells infected with A/PR/8/34, survival of infected cells, class symbols, read-out: IC50 (mean all)
[4] = Influenza A virus, PR/8, MDCK, MDCK cells infected with A/PR/8/34, replication of influenza virus (viral RNA, bDNA), class symbols, read-out: EC50 (mean all)
[5] = […], replication of influenza virus (viral RNA, bDNA), class symbols, read-out: EC50 (mean all)
[6] = mean all, MDCK cells infected with A/PR/8/34, cell protection (CPE), read-out: IC50
[7] = mean all, bDNA viral RNA in MDCK cells infected with A/PR/8/34, read-out: EC50
[8] = Influenza A virus, PR/8, MDCK, MDCK cells infected with A/PR/8/34, cell protection (CPE), read-out: IC50 (mean all)
[9] = Influenza A virus, PR/8, MDCK, MDCK cells infected with A/PR/8/34, bDNA viral RNA, read-out: EC50 (mean all)

## CNC(=O)[C@@H]1CCCC[C@@H]1Nc1nc(-c2c[nH]c3ncc(Cl)cc23)ncc1F (relative stereo) [Compound 539, Cis-2-(2-(5-chloro-1H-pyrrolo[2,3-b]pyridin-3-yl)-5-fluoropyrimidin-4-ylamino)-N-methylcyclohexanecarboxamide]
[1]; [3]
  IC50: 5 to 20 µM
[2]; [4]
  EC50: < 5 µM

## CN(C)C(=O)[C@@H]1CCCC[C@@H]1Nc1nc(-c2c[nH]c3ncc(Cl)cc23)ncc1F (relative stereo) [Compound 543, Cis-2-(2-(5-chloro-1H-pyrrolo[2,3-b]pyridin-3-yl)-5-fluoropyrimidin-4-ylamino)-N,N-dimethylcyclohexanecarboxamide]
[1]; [3]
  IC50: < 5 µM
[2]; [4]
  EC50: < 5 µM

## NC(=O)[C@@H]1CCCC[C@@H]1Nc1nc(-c2c[nH]c3ncc(Cl)cc23)ncc1F (relative stereo) [Compound 544, cis-2-(2-(5-chloro-1H-pyrrolo[2,3-b]pyridin-3-yl)-5-fluoropyrimidin-4-ylamino)cyclohexanecarboxamide]
[1]; [3]
  IC50: > 20 µM
[2]; [4]
  EC50: < 5 µM

## O=C(O)[C@@H]1CCCC[C@@H]1Nc1nc(-c2c[nH]c3ncc(Cl)cc23)ncc1F (relative stereo) [Compound 554]
[1]; read-out: IC50 (mean all)
  IC50: > 10 µM
[2]; [5]
  EC50: 5 to 10 µM

## COCC(=O)N[C@@H]1CCCC[C@H]1CNc1nc(-c2c[nH]c3ncc(Cl)cc23)ncc1F (relative stereo) [Compound 556, N-(trans-2-((2-(5-chloro-1H-pyrrolo[2,3-b]pyridin-3-yl)-5-fluoropyrimidin-4-ylamino)methyl)cyclohexyl)-2-methoxyethanamide]
[1]; [3]
  IC50: > 10 µM
[2]; [4]
  EC50: < 5 µM

## O=C(O)[C@@H]1CCC[C@@H]1Nc1nc(-c2c[nH]c3ncc(Cl)cc23)ncc1F (relative stereo) [Compound 558, Cis-2-(2-(5-chloro-1H-pyrrolo[2,3-b]pyridin-3-yl)-5-fluoropyrimidin-4-ylamino)cyclopentanecarboxylic acid]
[1]; [3]
  IC50: < 5 µM
[2]; [4]
  EC50: < 5 µM

## O=C(O)[C@@H]1CCCC[C@@H]1Nc1nc(-c2c[nH]c3ncc(Cl)cc23)ncc1F (relative stereo) [Compound 559, Cis-2-(2-(5-chloro-1H-pyrrolo[2,3-b]pyridin-3-yl)-5-fluoropyrimidin-4-ylamino)cyclohexanecarboxylic acid]
[1]; [3]
  IC50: < 5 µM
[2]; [4]
  EC50: < 5 µM

## CN(C)C(=O)N[C@@H]1CCCC[C@H]1CNc1nc(-c2c[nH]c3ncc(Cl)cc23)ncc1F (relative stereo) [Compound 564, 3-(trans-2-((2-(5-chloro-1H-pyrrolo[2,3-b]pyridin-3-yl)-5-fluoropyrimidin-4-ylamino)methyl)cyclohexyl)-1,1-dimethylurea]
[1]; [3]
  IC50: > 10 µM
[2]; [4]
  EC50: < 5 µM

## CC[C@@]1(C(=O)O)CCCC[C@H]1Nc1nc(-c2c[nH]c3ncc(Cl)cc23)ncc1F (relative stereo) [Compound 586, trans-2-(2-(5-chloro-1H-pyrrolo[2,3-b]pyridin-3-yl)-5-fluoropyrimidin-4-ylamino)-1-ethylcyclohexanecarboxylic acid]
[1]; read-out: IC50 (mean all)
  IC50: < 5 µM
[2]; [5]
  EC50: < 5 µM

## CC1(O)CCCCC1Nc1nc(-c2c[nH]c3ncc(Cl)cc23)ncc1F (single isomer, unassigned) [Compound 563, 2-(2-(5-chloro-1H-pyrrolo[2,3-b]pyridin-3-yl)-5-fluoropyrimidin-4-ylamino)-1-methylcyclohexanol]
[1]; [3]
  IC50: < 5 µM
[2]; [4]
  EC50: < 5 µM

## CCNC(=O)OC1CCCC(Nc2nc(-c3c[nH]c4ncc(Cl)cc34)ncc2F)C1 (single isomer, unassigned) [Compound 609]
[1]; CPE assay, A/PR/8/34 infected MDCK cells, class symbols, read-out: IC50 (mean all)
  IC50: < 5 µM
[2]; bDNA assay, A/PR/8/34 influenza virus replication in MDCK cells, class symbols, read-out: EC50 (mean all)
  EC50: < 5 µM

## CCC1(O)CCCC(Nc2nc(-c3c[nH]c4ncc(Cl)cc34)ncc2F)C1 (single isomer, unassigned) [Compound 709]
[1]; [6]
  IC50: < 5 µM
[2]; [7]
  EC50: < 5 µM

## CCC1(O)CCCC(Nc2nc(-c3c[nH]c4ncc(Cl)cc34)ncc2F)C1 (single isomer, unassigned) [Compound 710]
[1]; [6]
  IC50: < 5 µM
[2]; [7]
  EC50: < 5 µM

## CCNC(=O)OC1(C)CCCC(Nc2nc(-c3c[nH]c4ncc(Cl)cc34)ncc2F)C1 (single isomer, unassigned) [Compound 722]
[1]; [6]
  IC50: < 5 µM
[2]; [7]
  EC50: < 5 µM

## O=C(NC1CC2CC(Nc3nc(-c4c[nH]c5ncc(F)cc45)ncc3F)C1C2)N1CCCC1 (single isomer, unassigned) [Compound 1045, N-[6-[[5-fluoro-2-(5-fluoro-1H-pyrrolo[2,3-b]pyridin-3-yl)pyrimidin-4-yl]amino]norbornan-2-yl]pyrrolidine-1-carboxamide]
[1]; Influenza A virus, PR/8, MDCK, MDCK cells, A/PR/8/34, ATP readout, mean all, read-out: Cell Flu, MDCK protection, ATP (All: IC50: uM)(Mean (All))
  IC50: < 5 µM
[2]; Influenza A virus, PR/8, 30 h, HA(−) 30 hr, A/PR/8, bDNA, mean all, read-out: Cell Influenza HA(−) 30 hr A/PR/8 bDNA:bDNA EC50 uM(Mean (All))
  EC50: < 5 µM

## C[C@]1(C(=O)O)CCCC[C@@H]1Nc1nc(-c2c[nH]c3ncc(Cl)cc23)ncc1F (stereo in doubt) [Compound 643, Trans-2-[[2-(5-chloro-1H-pyrrolo[2,3-b]pyridin-3-yl)-5-fluoro-pyrimidin-4-yl]amino]-1-methyl-cyclohexanecarboxylic acid]
[1]; Influenza A virus, PR/8, MDCK, CPE assay, A/PR/8/34 infected MDCK cells, class symbols, read-out: IC50 (mean all)
  IC50: < 5 µM
[2]; Influenza A virus, PR/8, MDCK, bDNA assay, A/PR/8/34 influenza virus replication in MDCK cells, class symbols, read-out: EC50 (mean all)
  EC50: < 5 µM

## OC1CCCC1Nc1nc(-c2c[nH]c3ncc(Cl)cc23)ncc1F (stereo not drawn) [Compound 14, 2-(2-(5-chloro-1H-pyrrolo[2,3-b]pyridin-3-yl)-5-fluoropyrimidin-4-ylamino)cyclopentanol]
[1]; [8]
  IC50: 5 to 20 µM
[2]; [9]
  EC50: < 5 µM

## CC(C)(C)OC(=O)N1CCC[C@H](CNc2nc(-c3c[nH]c4ncc(Cl)cc34)ncc2F)C1 [Compound 15, (R)-tert-butyl 3-((2-(5-chloro-1H-pyrrolo[2,3-b]pyridin-3-yl)-5-fluoropyrimidin-4-ylamino)methyl)piperidine-1-carboxylate]
[1]; [8]
  IC50: 5 to 20 µM
[2]; [9]
  EC50: < 5 µM

## C=CCOC(=O)N1CCC[C@@H](CNc2nc(-c3c[nH]c4ncc(Cl)cc34)ncc2F)C1 [Compound 17, (S)-allyl 3-((2-(5-chloro-1H-pyrrolo[2,3-b]pyridin-3-yl)-5-fluoropyrimidin-4-ylamino)methyl)piperidine-1-carboxylate]
[1]; [8]
  IC50: 5 to 20 µM
[2]; [9]
  EC50: < 5 µM

## O=C(Nc1ccsc1)N1CCC[C@@H](CNc2nc(-c3c[nH]c4ncc(Cl)cc34)ncc2F)C1 [Compound 22, (S)-3-((2-(5-chloro-1H-pyrrolo[2,3-b]pyridin-3-yl)-5-fluoropyrimidin-4-ylamino)methyl)-N-(thiophen-3-yl)piperidine-1-carboxamide]
[1]; [8]
  IC50: < 5 µM
[2]; [9]
  EC50: < 5 µM

## COC(=O)N1CCC[C@@H](CNc2nc(-c3c[nH]c4ncc(Cl)cc34)ncc2F)C1 [Compound 23, (S)-methyl 3-((2-(5-chloro-1H-pyrrolo[2,3-b]pyridin-3-yl)-5-fluoropyrimidin-4-ylamino)methyl)piperidine-1-carboxylate]
[1]; [8]
  IC50: < 5 µM
[2]; [9]
  EC50: < 5 µM

## CCOC(=O)CNC(=O)N1CCC[C@@H](CNc2nc(-c3c[nH]c4ncc(Cl)cc34)ncc2F)C1 [Compound 25, (S)-ethyl 2-(3-((2-(5-chloro-1H-pyrrolo[2,3-b]pyridin-3-yl)-5-fluoropyrimidin-4-ylamino)methyl)piperidine-1-carboxamido)ethanoate]
[1]; [8]
  IC50: < 5 µM
[2]; [9]
  EC50: < 5 µM

## CCOC(=O)NC(=O)N1CCC[C@@H](CNc2nc(-c3c[nH]c4ncc(Cl)cc34)ncc2F)C1 [Compound 26, (S)-ethyl 3-((2-(5-chloro-1H-pyrrolo[2,3-b]pyridin-3-yl)-5-fluoropyrimidin-4-ylamino)methyl)piperidine-1-carbonylcarbamate]
[1]; [8]
  IC50: < 5 µM
[2]; [9]
  EC50: < 5 µM

## CC(C)NC(=O)N1CCC[C@@H](CNc2nc(-c3c[nH]c4ncc(Cl)cc34)ncc2F)C1 [Compound 27, (S)-3-((2-(5-chloro-1H-pyrrolo[2,3-b]pyridin-3-yl)-5-fluoropyrimidin-4-ylamino)methyl)-N-isopropylpiperidine-1-carboxamide]
[1]; [8]
  IC50: < 5 µM
[2]; [9]
  EC50: < 5 µM

## CC(C)COC(=O)N1CCC[C@@H](CNc2nc(-c3c[nH]c4ncc(Cl)cc34)ncc2F)C1 [Compound 28, (S)-isobutyl 3-((2-(5-chloro-1H-pyrrolo[2,3-b]pyridin-3-yl)-5-fluoropyrimidin-4-ylamino)methyl)piperidine-1-carboxylate]
[1]; [8]
  IC50: > 20 µM
[2]; [9]
  EC50: < 5 µM

## CC#CCOC(=O)N1CCC[C@@H](CNc2nc(-c3c[nH]c4ncc(Cl)cc34)ncc2F)C1 [Compound 30, (S)-but-2-ynyl 3-((2-(5-chloro-1H-pyrrolo[2,3-b]pyridin-3-yl)-5-fluoropyrimidin-4-ylamino)methyl)piperidine-1-carboxylate]
[1]; Influenza A virus, PR/8, MDCK, read-out: IC50 (mean all)
  IC50: 5 to 20 µM
[2]; Influenza A virus, PR/8, MDCK, read-out: EC50 (mean all)
  EC50: < 5 µM

## N[C@@H]1CCCC[C@H]1Nc1nc(-c2c[nH]c3ncc(Cl)cc23)ncc1C(F)(F)F [Compound 31, (1R,2R)—N1-(2-(5-chloro-1H-pyrrolo[2,3-b]pyridin-3-yl)-5-(trifluoromethyl)pyrimidin-4-yl)cyclohexane-1,2-diamine]
[1]; [8]
  IC50: < 5 µM
[2]; [9]
  EC50: < 5 µM
